Laboratory results published in patent US20250368666A1, “INDAZOLE COMPOUNDS” (TYRA BIOSCIENCES, INC., priority 2022, published 2025).
Where two headings read alike, the source gives them in different places.

Assays:
[1] = biological target: T1, FGFR1 (Homo sapiens, UniProt P11362); test: Kinase binding assay (kinase-tagged T7 phage, affinity beads, qPCR), Kd; conditions: read-out: FGFR1 (Kd nM)
T1 construct: made in house; host or cells: E. coli (BL21-derived), T7 phage
Description: (§1) Kinase-tagged T7 phage strains were prepared in an E. coli host derived from the BL21 strain. E. coli were grown to log-phase and infected with T7 phage and incubated with shaking at 32° C. until lysis. The lysates were centrifuged and filtered to remove cell debris. Streptavidin-coated magnetic beads were treated with biotinylated small molecule ligands for 30 minutes at room temperature to generate affinity resins for kinase assays. The liganded beads were blocked with excess biotin and washed with blocking buffer SeaBlock (Pierce), 1% BSA, 0.05% Tween 20, 1 mM DTT to remove unbound ligand and to reduce non-specific binding.
(§2) Test compounds were prepared as 111× stocks in 100% DMSO. Kds were determined using an 11-point 3-fold compound dilution series with three DMSO control points. […] The compounds were then diluted directly into the assays such that the final concentration of DMSO was 0.9%. All reactions performed in polypropylene 384-well plate. Each was a final volume of 0.02 ml. […] The kinase concentration in the eluates was measured by qPCR.
(§3) Binding constants were calculated with a standard dose-response curve using the Hill equation: […]
(§4) The Hill Slope was set to −1. Curves were fitted using a non-linear least square fit with the Levenberg-Marquardt algorithm.

[2] = biological target: T2, FGFR3 (Homo sapiens, UniProt P22607); test: as above; conditions: read-out: FGFR3 (Kd nM)
T2 construct: made in house; host or cells: E. coli (BL21-derived), T7 phage
T2 sequence (P22607 23-806): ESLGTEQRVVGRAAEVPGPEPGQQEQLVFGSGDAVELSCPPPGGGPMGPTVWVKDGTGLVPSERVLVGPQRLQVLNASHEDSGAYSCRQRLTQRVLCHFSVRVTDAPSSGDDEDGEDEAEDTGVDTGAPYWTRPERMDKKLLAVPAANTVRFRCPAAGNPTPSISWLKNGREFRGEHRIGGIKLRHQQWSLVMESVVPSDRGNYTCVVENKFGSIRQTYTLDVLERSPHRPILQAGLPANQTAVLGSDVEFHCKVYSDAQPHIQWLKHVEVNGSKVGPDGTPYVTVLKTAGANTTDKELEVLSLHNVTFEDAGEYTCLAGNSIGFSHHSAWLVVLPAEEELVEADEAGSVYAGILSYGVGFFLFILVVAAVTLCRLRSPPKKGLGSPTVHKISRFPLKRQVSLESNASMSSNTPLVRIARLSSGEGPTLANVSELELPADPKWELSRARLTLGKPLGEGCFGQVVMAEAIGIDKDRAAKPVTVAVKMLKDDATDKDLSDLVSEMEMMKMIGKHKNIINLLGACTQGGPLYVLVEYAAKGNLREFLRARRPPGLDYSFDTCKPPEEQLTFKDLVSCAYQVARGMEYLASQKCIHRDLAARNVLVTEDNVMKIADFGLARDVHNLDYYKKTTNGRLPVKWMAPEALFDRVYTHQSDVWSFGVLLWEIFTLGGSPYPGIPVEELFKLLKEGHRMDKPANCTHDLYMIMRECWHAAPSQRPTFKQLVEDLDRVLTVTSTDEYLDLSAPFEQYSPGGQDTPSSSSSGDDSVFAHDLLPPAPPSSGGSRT
Description: as §1, §2, §3, §4

[3] = kinase binding assay, 11-point 3-fold dilution series

T1 sequence (P11362 22-822): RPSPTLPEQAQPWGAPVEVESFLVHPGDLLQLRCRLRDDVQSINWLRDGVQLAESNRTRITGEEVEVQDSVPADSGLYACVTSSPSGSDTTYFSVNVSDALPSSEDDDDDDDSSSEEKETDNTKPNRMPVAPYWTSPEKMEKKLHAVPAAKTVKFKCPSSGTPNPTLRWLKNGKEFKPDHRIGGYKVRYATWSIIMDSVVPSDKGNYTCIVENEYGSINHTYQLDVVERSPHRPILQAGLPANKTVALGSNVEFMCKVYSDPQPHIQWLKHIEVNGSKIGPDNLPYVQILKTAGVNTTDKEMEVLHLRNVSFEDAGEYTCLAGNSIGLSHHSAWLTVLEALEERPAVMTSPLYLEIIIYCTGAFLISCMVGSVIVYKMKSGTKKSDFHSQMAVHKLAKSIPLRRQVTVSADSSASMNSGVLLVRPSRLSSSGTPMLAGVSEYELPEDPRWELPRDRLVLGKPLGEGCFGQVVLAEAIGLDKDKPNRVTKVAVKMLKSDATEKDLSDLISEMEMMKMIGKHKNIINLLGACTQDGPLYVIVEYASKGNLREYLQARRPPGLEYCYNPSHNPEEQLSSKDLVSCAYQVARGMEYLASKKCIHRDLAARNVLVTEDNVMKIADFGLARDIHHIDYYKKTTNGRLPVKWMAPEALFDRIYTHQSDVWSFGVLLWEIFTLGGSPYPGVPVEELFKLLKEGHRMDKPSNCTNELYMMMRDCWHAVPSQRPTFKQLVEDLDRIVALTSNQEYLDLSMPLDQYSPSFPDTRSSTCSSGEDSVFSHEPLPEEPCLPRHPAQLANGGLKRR

Row | Structure (SMILES) | Kd [1] [nM] | Kd [2] [nM] | Kd [1, 3] [nM] | Kd [2, 3] [nM]
1 | Cc1ncc(Cl)c([C@@H](C)Oc2ccc3[nH]nc(-c4cnc(N5CC(CC#N)(NCC(C)C)C5)c(F)c4)c3c2)c1Cl [Example 254, (R)-2-(1-(5-(5-(1-(3,5-Dichloro-2-methylpyridin-4-yl)ethoxy)-1H-indazol-3-yl)-3-fluoropyridin-2-yl)-3-(iso-butylamino)azeti-din-3-yl)acetonitrile] | 50 to 300 | 1 to 50 |  | 
2 | C[C@@H](Oc1ccc2[nH]nc(-c3cnc(N4CC(N)(CS(C)(=O)=O)C4)c(F)c3)c2c1)c1c(Cl)cncc1Cl [Example 412, 1-[5-[5-[(1R)-1-(3,5-dichloro-4-pyridyl)ethoxy]-1H-indazol-3-yl]-3-fluoro-2-pyridyl]-3-(methylsulfonyl-methyl)azetidin-3-amine] |  |  | 1 to 50 | 1 to 50
3 | COc1cc2[nH]nc(-c3cnc(N4CCC(C)(N)CC4)c(F)c3)c2cc1O[C@H](C)c1c(Cl)cncc1Cl [Example 383, (R)-1-(5-(5-(1-(3,5-dichloropyridin-4-yl)ethoxy)-6-methoxy-1H-indazol-3-yl)-3-fluoropyridin-2-yl)-4-methylpiperidin-4-amine] |  |  | 1 to 50 | 1 to 50
4 | CC(C)OC(=O)C1(N)CN(c2ncc(-c3n[nH]c4ccc(O[C@H](C)c5c(Cl)cncc5Cl)cc34)cc2F)C1 [Example 287, (R)-isopropyl 3-amino-1-(5-(5-(1-(3,5-dichloropyridin-4-yl)ethoxy)-1H-indazol-3-yl)-3-fluoropyridin-2-yl)azetidine-3-carboxylate] | 1 to 50 | 1 to 50 |  | 
5 | C[C@@H](Oc1ccc2[nH]nc(-c3cnc(N4CCC(N)(CS(C)(=O)=O)CC4)c(F)c3)c2c1)c1c(Cl)cncc1Cl [Example 375, (R)-1-(5-(5-(1-(3,5-dichloropyridin-4-yl)ethoxy)-1H-indazol-3-yl)-3-fluoropyridin-2-yl)-4-((methylsulfonyl)methyl)piperidin-4-amine] | 1 to 50 | 1 to 50 |  | 
6 | C[C@@H](Oc1ccc2[nH]nc(-c3cnc(N4CC(N)(CCCO)C4)c(F)c3)c2c1)c1c(Cl)cncc1Cl [Example 307, (R)-3-(3-amino-1-(5-(5-(1-(3,5-dichloropyridin-4-yl)ethoxy)-1H-indazol-3-yl)-3-fluoropyridin-2-yl)azetidin-3-yl)propan-1-ol] | 1 to 50 | 1 to 50 |  | 
7 | C[C@@H](Oc1ccc2[nH]nc(-c3cnc(N4CC(N)(CC5CCCO5)C4)c(F)c3)c2c1)c1c(Cl)cncc1Cl (stereo partly drawn) [Example 288, 1-(5-(5-((R)-1-(3,5-dichloropyridin-4-yl)ethoxy)-1H-indazol-3-yl)-3-fluoropyridin-2-yl)-3-((tetrahydrofuran-2-yl)methyl)azetidin-3-amine] | 1 to 50 | 1 to 50 |  | 
8 | C[C@@H](Oc1ccc2[nH]nc(-c3ccc(N4CC(N)(CC(C)(C)O)C4)nn3)c2c1)c1c(Cl)cncc1Cl [Example 275, (R)-1-(3-amino-1-(6-(5-(1-(3,5-dichloropyridin-4-yl)ethoxy)-1H-indazol-3-yl)pyridazin-3-yl)azetidin-3-yl)-2-methylpropan-2-ol] | 1 to 50 | 1 to 50 |  | 
9 | C[C@@H](Oc1ccc2[nH]nc(-c3cnc(N4CC[C@](N)(Cc5ccn(C)n5)C4)c(F)c3)c2c1)c1c(Cl)cncc1Cl [Example 428, (S)-1-(5-(5-((R)-1-(3,5-dichloropyridin-4-yl)ethoxy)-1H-indazol-3-yl)-3-fluoropyridin-2-yl)-3-((1-methyl-1H-pyrazol-3-yl)methyl)pyrrolidin-3-amine] |  |  | 1 to 50 | 1 to 50
10 | CC[C@@]1(N)CCN(c2ccc(-c3n[nH]c4ccc(O[C@H](C)c5c(Cl)cncc5Cl)cc34)nn2)C1 [Example 402, (R)-1-(6-(5-((R)-1-(3,5-dichloropyridin-4-yl)ethoxy)-1H-indazol-3-yl)pyridazin-3-yl)-3-ethylpyrrolidin-3-amine] |  |  | 1 to 50 | 1 to 50
11 | C[C@@H](Oc1ccc2[nH]nc(-c3ccc(N4CC[C@@](N)(Cc5ccnn5C)C4)nn3)c2c1)c1c(Cl)cncc1Cl [Example 425, (R)-1-(6-(5-((R)-1-(3,5-dichloropyridin-4-yl)ethoxy)-1H-indazol-3-yl)pyridazin-3-yl)-3-((1-methyl-1H-pyrazol-5-yl)methyl)pyrrolidin-3-amine] |  |  | 1 to 50 | 1 to 50
12 | C[C@@H](Oc1ccc2[nH]nc(-c3ccc(N4CC(N)(CC5CCCO5)C4)nn3)c2c1)c1c(Cl)cncc1Cl (stereo partly drawn) [Example 305, 1-(6-(5-((R)-1-(3,5-dichloropyridin-4-yl)ethoxy)-1H-indazol-3-yl)pyridazin-3-yl)-3-((tetrahydrofuran-2-yl)methyl)azetidin-3-amine] | 1 to 50 | 1 to 50 |  | 
13 | C[C@@H](Oc1ccc2[nH]nc(-c3ccc(N4CC[C@@](N)(c5ccnn5C)C4)nn3)c2c1)c1c(Cl)cncc1Cl [Example 417, (S)-1-(6-(5-((R)-1-(3,5-dichloropyridin-4-yl)ethoxy)-1H-indazol-3-yl)pyridazin-3-yl)-3-(1-methyl-1H-pyrazol-5-yl)pyrrolidin-3-amine] |  |  | 1 to 50 | 1 to 50
14 | COCC1(N)CN(c2ncc(-c3n[nH]c4ccc(O[C@H](C)c5c(Cl)cncc5Cl)cc34)cc2F)C1 [Example 371, 1-[5-[5-[(1R)-1-(3,5-dichloro-4-pyridyl)ethoxy]-1H-indazol-3-yl]-3-fluoro-2-pyridyl]-3-(methoxy-methyl)aze-tidin-3-amine] | 1 to 50 | 1 to 50 |  | 
15 | C[C@@H](Oc1ccc2[nH]nc(-c3ccc(N4CC[C@](N)(Cc5ccnn5C)C4)nn3)c2c1)c1c(Cl)cncc1Cl [Example 424, (S)-1-(6-(5-((R)-1-(3,5-dichloropyridin-4-yl)ethoxy)-1H-indazol-3-yl)pyridazin-3-yl)-3-((1-methyl-1H-pyrazol-5-yl)methyl)pyrrolidin-3-amine] |  |  | 1 to 50 | 1 to 50
16 | C[C@@H](Oc1ccc2[nH]nc(-c3ccc(N4CCC(N)(c5ccnn5C)C4)nn3)c2c1)c1c(Cl)cncc1Cl (stereo in doubt) [Example 416, (R)-1-(6-(5-((R)-1-(3,5-dichloropyridin-4-yl)ethoxy)-1H-indazol-3-yl)pyridazin-3-yl)-3-(1-methyl-1H-pyrazol-5-yl)pyrrolidin-3-amine] |  |  | 1 to 50 | 1 to 50
17 | CC[C@]1(N)CCN(c2ccc(-c3n[nH]c4ccc(O[C@H](C)c5c(Cl)cncc5Cl)cc34)nn2)C1 [Example 403, (S)-1-(6-(5-((R)-1-(3,5-dichloropyridin-4-yl)ethoxy)-1H-indazol-3-yl)pyridazin-3-yl)-3-ethylpyrrolidin-3-amine] |  |  | 1 to 50 | 1 to 50
18 | C[C@@H](Oc1ccc2[nH]nc(-c3ccc(N4CC(N)(CC(C)(C)O)C4)nc3)c2c1)c1c(Cl)cncc1Cl [Example 278, (R)-1-(3-amino-1-(5-(5-(1-(3,5-dichloropyridin-4-yl)ethoxy)-1H-indazol-3-yl)pyridin-2-yl)azetidin-3-yl)-2-methylpropan-2-ol] | 1 to 50 | 1 to 50 |  | 
19 | C[C@@H](Oc1ccc2[nH]nc(-c3cnc(N4CC[C@](N)(c5ccnn5C)C4)c(F)c3)c2c1)c1c(Cl)cncc1Cl [Example 404, (R)-1-(5-(5-((R)-1-(3,5-dichloropyridin-4-yl)ethoxy)-1H-indazol-3-yl)-3-fluoropyridin-2-yl)-3-(1-methyl-1H-pyrazol-5-yl)pyrrolidin-3-amine] |  |  | 1 to 50 | 1 to 50
